Data on one molecule can be found in patent publication US12478690B2, “Methods and systems for controlled release of drug cargo via ATP-responsive liposomes” (UNIVERSITY OF TENNESSEE RESEARCH FOUNDATION, priority 2021, dated 2025).

A short description of the data set: Diffusion ordered spectroscopy (DOSY) of the lipid switch before and after ATP. In kind it is physicochemical. Conditions: DMSO containing 8% D2O; substance alone. On the procedure:
Diffusion ordered spectroscopy (DOSY) was performed on 1a lipid switch molecules in de-DMSO containing 8% D2O before and after adding ATP. A decrease in diffusion coefficient was observed. In at least one experiment, the diffusion coefficient decreased from (1.0793±0.043)×10^−6 cm^2/s for 1a lipid switch molecule and (1.142±0.018)×10^−6 cm^2/s for ATP to (0.987±0.098)×10^−6 cm^2/s for 1a+ATP. The diffusion coefficient indicates an increase in the hydrodynamic radius per lipid molecule upon binding.

For the molecule `Nc1ncnc2c1ncn2[C@@H]1O[C@H](COP(=O)(O)OP(=O)(O)OP(=O)(O)O)[C@@H](O)[C@H]1O` [ATP, adenosine triphosphate], the Diffusion coefficient was 1.142±0.018 ×10^−6 cm^2/s.
